Broadly, the ED50 is the dose that gives a 50% effect, or the effect in half of the subjects. Low values mean an effect at a small dose, high ones a need for a large dose.

The structures appear in SMILES notation.

Experiment [1] deals with angiotensin II-induced pressor responses. Description: Test C: in vivo antagonism of angiotensin II-induced pressor responses in rats. The conditions noted are these: iv, rat, i.v. administration. Here is the method: This in vivo test involves using terminally-anaesthetised or conscious rats in which an arterial catheter has been implanted under anaesthesia for the measurement of changes in blood pressure. The AII antagonistic effects of the test compound following oral or parenteral administration, are assessed against angiotensin II-induced pressor responses. To ensure that the effect is specific, the effect of the test compound on vasopressin-induced pressor responses may also be determined in the same preparation.

For experiment [2], the target named is T1, AII receptors (cell surface membrane fraction, guinea pig adrenal gland) (Cavia porcellus, UniProt Q9WV26).
T1 construct: the source of cell surface membranes is the guinea pig adrenal gland; from tissue; host or cells: guinea pig adrenal gland, cell surface membrane fraction
T1 sequence (Q9WV26 1-359): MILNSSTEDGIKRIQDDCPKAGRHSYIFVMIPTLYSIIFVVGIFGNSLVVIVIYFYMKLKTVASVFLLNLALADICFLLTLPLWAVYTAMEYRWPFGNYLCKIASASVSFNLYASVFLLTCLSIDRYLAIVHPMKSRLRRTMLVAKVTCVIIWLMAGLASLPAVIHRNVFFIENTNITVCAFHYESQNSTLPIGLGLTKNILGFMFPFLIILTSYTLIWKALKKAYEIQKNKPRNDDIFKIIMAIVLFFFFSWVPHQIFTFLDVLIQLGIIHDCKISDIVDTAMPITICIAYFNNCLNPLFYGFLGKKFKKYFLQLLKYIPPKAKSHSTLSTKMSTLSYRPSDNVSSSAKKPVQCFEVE
As to the kind of experiment: Test A: displacement of radiolabelled AII binding from guinea pig adrenal membranes. The conditions noted are these: in vitro, read-out: IC50 (concentration for 50% displacement of radiolabelled AII binding). Here is the method: This in vitro procedure involves the incubation of the test compound initially at a concentration of 100 micromolar (or less) in a buffered mixture containing fixed concentrations of radiolabelled AII and a cell surface membrane fraction prepared from a suitable angiotensin target tissue. In this test, the source of cell surface membranes is the guinea pig adrenal gland which is well known to respond to AII. Interaction of the radiolabelled AII with its receptors (assessed as radiolabel bound to the particulate membrane fraction following removal of unbound radiolabel by a rapid filtration procedure such as is standard in such studies) is antagonized by compounds which also bind to the membrane receptor sites and the degree of antagonism (observed in the test as displacement of membrane-bound radioactivity) is determined readily by comparing the receptor-bound radioactivity in the presence of the test compound at the specified test concentration with a control value determined in the absence of the test compound. Using this procedure compounds showing at least 50% displacement of radiolabelled AII binding at a concentration of 10^-4 M are retested at lower concentrations to determine their potency. […]

The compound `Cc1cc(OC(C)c2ccc(-c3ccccc3-c3nnn[nH]3)cc2)c2ccccc2n1.Cl` (centres unmarked) [Example 1, 2-methyl-4-[1-(2'-(1H-tetrazol-5-yl)biphenyl-4-yl)ethoxy]quinoline hydrochloride] displayed an ED50 in experiment [1] of 0.18 mg/kg. Further, the IC50 in experiment [2] came to 40 nM.
